Measurements as given in the supplement of paper PMC10307832.

Tests used:
BAY61-3606 + Trametinib = compound: COC1=C(C=C(C=C1)C2=CC3=NC=CN3C(=N2)NC4=C(C=CC=N4)C(=O)N)OC [BAY61-3606] + CC(=O)Nc1cccc(-n2c(=O)n(C3CC3)c(=O)c3c(Nc4ccc(I)cc4F)n(C)c(=O)c(C)c32)c1 [Trametinib] (partner 0.02 µM); experiment: relative viability (nuclei count vs DMSO), 5 days (fraction); higher = more cells survive
Procedure, shortened: (§1)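 One day after seeding in 1536-well plates, lung cancer cell lines were dosed by pin tool. Dosing was either single-drug or a fixed anchor-drug dose plus five library-drug doses (not always all listed) in √10 steps. After 5 days, nuclei were stained in one fix-and-stain step and counted on 4× images, and relative viability is the nuclei count of treated wells over that of vehicle wells, given as the median of duplicate plates.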

BAY61-3606 + AZD7762 = compound: COC1=C(C=C(C=C1)C2=CC3=NC=CN3C(=N2)NC4=C(C=CC=N4)C(=O)N)OC [BAY61-3606] + NC(=O)Nc1cc(-c2cccc(F)c2)sc1C(=O)N[C@H]1CCCNC1 [AZD7762] (partner 0.2 µM); experiment: as above
Procedure, shortened: as §1

Cell Line | relative viability (BAY61-3606 + Trametinib; first compound 0.02 µM) | relative viability (BAY61-3606 + Trametinib; first compound 0.06325 µM) | relative viability (BAY61-3606 + Trametinib; first compound 0.2 µM) | relative viability (BAY61-3606 + Trametinib; first compound 0.6325 µM) | relative viability (BAY61-3606 + Trametinib; first compound 2 µM) | relative viability (BAY61-3606 + AZD7762; first compound 0.02 µM) | relative viability (BAY61-3606 + AZD7762; first compound 0.06325 µM) | relative viability (BAY61-3606 + AZD7762; first compound 0.2 µM) | relative viability (BAY61-3606 + AZD7762; first compound 0.6325 µM) | relative viability (BAY61-3606 + AZD7762; first compound 2 µM)
NCI-H1944 | 0.469 | 0.392 | 0.405 | 0.369 | 0.299 | 0.477 | 0.533 | 0.635 | 0.592 | 0.485
NCI-H1975 | 0.409 | 0.295 | 0.354 | 0.325 | 0.254 | 0.706 | 0.603 | 0.621 | 0.654 | 0.348
NCI-H1993 | 0.498 | 0.507 | 0.544 | 0.538 | 0.518 | 0.823 | 0.824 | 0.614 | 0.869 | 0.739
NCI-H2085 | 0.666 | 0.45 | 0.511 | 0.59 | 0.42 | 1.01 | 1.08 | 0.969 | 1.1 | 0.942
NCI-H2087 | 0.228 | 0.196 | 0.202 | 0.178 | 0.2 | 1.31 | 1.43 | 1.35 | 1.23 | 0.959
NCI-H2126 | 0.622 | 0.539 | 0.514 | 0.567 | 0.57 | 1.06 | 1.09 | 0.999 | 1.02 | 0.954
NCI-H2170 | 0.859 | 0.879 | 0.907 | 0.916 | 0.762 | 0.895 | 0.913 | 0.885 | 0.85 | 0.585
NCI-H2342 | 0.899 | 0.912 | 0.855 | 0.712 | 0.953 | 0.459 | 0.496 | 0.416 | 0.726 | 0.586
NCI-H2347 | 0.287 | 0.332 | 0.285 | 0.296 | 0.244 | 0.801 | 0.701 | 0.73 | 0.67 | 0.709
NCI-H2405 | 0.637 | 0.559 | 0.711 | 0.728 | 0.518 | 0.832 | 0.658 | 0.748 | 0.658 | 0.496
NCI-H3122 | 0.235 | 0.24 | 0.246 | 0.242 | 0.249 | 0.989 | 0.968 | 0.962 | 1.02 | 0.945
PC-3 [JPC-3] | 0.772 | 0.668 | 0.741 | 0.726 | 0.654 | 0.675 | 0.794 | 0.809 | 0.801 | 0.752
PC-14 | 0.732 | 0.887 | 0.732 | 1.01 | 0.607 | 0.418 | 0.268 | 0.35 | 0.32 | 0.342
RERF-LC-KJ | 0.868 | 0.846 | 0.901 | 0.866 | 0.676 | 1.07 | 0.846 | 1.03 | 0.872 | 0.869
SW 900 | 0.877 | – | – | 0.87 | 0.585 | 0.591 | – | – | 0.632 | 0.758
